# According to patent US10138233B2, “Imidazole compounds as modulators of FSHR and uses thereof” (Merck Patent GmbH, priority 2013, dated 2018):
# Assays:
# FSHR = molecular target: T1, FSHR (Homo sapiens, UniProt P23945); assay: EC50 of cyclic AMP production in CHO FSHR cells + EC20 FSH (Assay A); type: cell-based; details: CHO-FSHR-LUC cells, in presence of EC20 FSH, cAMP HTRF, 1 h 37° C.
# T1 construct: expressed in transfected cells; host or cells: CHO cells, clone Cho-FSHR-LUC-1-1-43
# T1 sequence (P23945 18-695): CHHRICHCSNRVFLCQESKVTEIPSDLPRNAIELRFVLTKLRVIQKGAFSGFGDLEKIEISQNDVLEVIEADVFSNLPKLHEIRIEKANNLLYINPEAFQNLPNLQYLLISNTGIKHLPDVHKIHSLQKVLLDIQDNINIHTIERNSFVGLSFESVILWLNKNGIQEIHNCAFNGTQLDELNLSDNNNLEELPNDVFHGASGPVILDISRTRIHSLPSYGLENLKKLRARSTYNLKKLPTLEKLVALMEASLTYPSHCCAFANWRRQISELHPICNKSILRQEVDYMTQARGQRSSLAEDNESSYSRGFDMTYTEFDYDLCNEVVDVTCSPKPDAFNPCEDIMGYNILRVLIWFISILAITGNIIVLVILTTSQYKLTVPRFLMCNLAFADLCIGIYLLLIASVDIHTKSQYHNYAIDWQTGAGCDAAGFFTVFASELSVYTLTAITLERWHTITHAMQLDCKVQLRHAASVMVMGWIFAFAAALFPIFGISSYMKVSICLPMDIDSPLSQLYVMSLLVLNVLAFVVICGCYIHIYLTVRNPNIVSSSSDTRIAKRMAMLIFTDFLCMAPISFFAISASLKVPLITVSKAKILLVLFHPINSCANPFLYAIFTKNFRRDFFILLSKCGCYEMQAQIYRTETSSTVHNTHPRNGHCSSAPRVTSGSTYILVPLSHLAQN
# [1] = molecular target: T2, follicle-stimulating hormone (FSH) receptor (Rattus norvegicus, UniProt P20395); assay: Rat Granulosa EC50 FSH (Assay B); type: cell-based; details: rat granulosa cells, per Yanofsky et al. 2006
# T2 construct: Rat Granulosa EC50 FSH (Assay B); endogenous in cells; host or cells: rat granulosa cells
# T2 sequence (P20395 18-692): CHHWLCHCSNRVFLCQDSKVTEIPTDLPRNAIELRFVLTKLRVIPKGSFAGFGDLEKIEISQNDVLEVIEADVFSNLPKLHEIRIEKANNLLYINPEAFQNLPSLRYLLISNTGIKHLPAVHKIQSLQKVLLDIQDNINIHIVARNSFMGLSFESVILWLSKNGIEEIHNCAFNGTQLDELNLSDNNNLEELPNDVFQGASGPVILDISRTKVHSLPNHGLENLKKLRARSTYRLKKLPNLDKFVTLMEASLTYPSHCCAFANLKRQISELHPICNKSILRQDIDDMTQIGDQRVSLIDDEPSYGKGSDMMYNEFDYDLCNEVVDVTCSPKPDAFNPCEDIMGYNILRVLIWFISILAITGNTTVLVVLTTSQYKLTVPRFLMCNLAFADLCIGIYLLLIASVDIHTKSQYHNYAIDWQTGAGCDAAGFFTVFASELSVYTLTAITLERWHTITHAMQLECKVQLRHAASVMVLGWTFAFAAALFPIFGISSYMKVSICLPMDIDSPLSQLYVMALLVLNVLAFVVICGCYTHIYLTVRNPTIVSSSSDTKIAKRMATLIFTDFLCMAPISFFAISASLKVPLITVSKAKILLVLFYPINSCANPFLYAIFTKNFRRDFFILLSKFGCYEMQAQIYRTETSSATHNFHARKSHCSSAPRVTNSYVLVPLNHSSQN
Compound,EC50 (FSHR),EC50 [1]
COc1cc2c(cc1OC(C)C)-n1c(-c3cc(Cl)cs3)nc(C(=O)N3CCOCC3(C)C)c1CC2 [Compound 114],< 100 nM,100 to 1000 nM
"[2H]C([2H])([2H])N(CCN(C(=O)c1nc(-c2cccs2)n2c1CCc1cc(OC)c(CC(C)C)cc1-2)C([2H])([2H])[2H])C(C)=O [Compound 31, 8-Isobutyl-7-methoxy-1-thiophen-2-yl-4,5-dihydro-imidazo[1,5-a]quinoline-3-carboxylic acid [2-(acetyl-methyl-d3-amino)-ethyl]-methyl-d3-amide]",100 to 1000 nM,> 5000 nM
"[2H]C([2H])([2H])OCC(C)(C)N(C(=O)c1nc(-c2cccs2)n2c1CCc1cc(OC)c(CC(C)C)cc1-2)C([2H])([2H])[2H] [Compound 32, 8-Isobutyl-7-methoxy-1-thiophen-2-yl-4,5-dihydro-imidazo[1,5-a]quinoline-3-carboxylic acid (2-methoxy-d3-1,1-dimethyl-ethyl)-methyl-d3-amide]",< 100 nM,> 5000 nM
"COc1cc2c(cc1-c1ccn(C)c1)-n1c(-c3cccs3)nc(C(=O)N3CCOCC3(C)C)c1CC2 [Compound 143, (3,3-Dimethyl-morpholin-4-yl)-[7-methoxy-8-(1-methyl-1H-pyrrol-3-yl)-1-thiophen-2-yl-4,5-dihydro-imidazo[1,5-a]quinolin-3-yl]-methanone]",< 100 nM,> 5000 nM
"COc1cc2c(cc1CC(C)C)-n1c(-c3ccc[nH]3)nc(C(=O)N3CCOCC3(C)C)c1CC2 [Compound 30, (3,3-Dimethyl-morpholin-4-yl)-[8-isobutyl-7-methoxy-1-(1H-pyrrol-2-yl)-4,5-dihydro-imidazo[1,5-a]quinolin-3-yl]-methanone]",100 to 1000 nM,> 5000 nM
"COc1cc2c(cc1CC(C)C)-n1c(-c3ccc(C)s3)nc(C(=O)N(C)C(C)(C)C)c1CC2 [Compound 96, 8-Isobutyl-7-methoxy-1-(5-methyl-thiophen-2-yl)-4,5-dihydro-imidazo[1,5-a]quinoline-3-carboxylic acid tert-butyl-methyl-amide]",100 to 1000 nM,1000 to 5000 nM
COc1cc2c(cc1OC(C)C)-n1c(-c3ccc(C)s3)nc(C(=O)N3CCOCC3(C)C)c1CC2 [Compound 71],< 100 nM,100 to 1000 nM
"COc1cc2c(cc1CC(C)C)-n1c(-c3ccc(F)s3)nc(C(=O)N(C)C(C)(C)C)c1CC2 [Compound 21, 1-(5-Fluoro-thiophen-2-yl)-8-isobutyl-7-methoxy-4,5-dihydro-imidazo[1,5-a]quinoline-3-carboxylic acid tert-butyl-methyl-amide]",< 100 nM,1000 to 5000 nM
"[2H]C([2H])([2H])n1cc(-c2cc3c(cc2OC)CCc2c(C(=O)N4CCOCC4(C)C)nc(-c4cccn4C)n2-3)cn1 [Compound 149, (3,3-dimethylmorpholino)(7-methoxy-8-(1-methyl-1H pyrazol-4-yl)-1-(1-methyl-1H-pyrrol-2-yl)-4,5-dihydroimidazo[1,5-a]quinolin-3-yl)methanone]",< 100 nM,1000 to 5000 nM
"COc1cc2c(cc1CC(C)C)-n1c(S(=O)(=O)C3CC3)nc(C(=O)N(C)C(C)(C)C)c1CC2 [Compound 34, 1-Cyclopropanesulfonyl-8-isobutyl-7-methoxy-4,5-dihydro-imidazo[1,5-a]quinoline-3-carboxylic acid tert-butyl-methyl-amide]",100 to 1000 nM,1000 to 5000 nM
"COc1cc2c(cc1-c1ccn(C)n1)-n1c(-c3cccc(Cl)c3)nc(C(=O)N3CCOCC3(C)C)c1CC2 [Compound 148, (1-(3-chlorophenyl)-7-methoxy-8-(1-methyl-1H-pyrazol-3-yl)-4,5-dihydroimidazo[1,5-a]quinolin-3-yl)(3,3-dimethylmorpholino)methanone]",100 to 1000 nM,1000 to 5000 nM
COc1cc2c(cc1OC(C)C)-n1c(-c3cccc(Cl)c3F)nc(C(=O)N3CCOCC3(C)C)c1CC2 [Compound 134],100 to 1000 nM,100 to 1000 nM
COc1cc2c(cc1OC(C)C)-n1c(-c3ccsc3)nc(C(=O)N3CCCN(C(=O)C4CCC4)CC3)c1CC2 [Compound 6],< 100 nM,< 100 nM
COc1cc2c(cc1OC(C)C)-n1c(-c3cccn3C)nc(C(=O)N3CCOCC3(C)C)c1CC2 [Compound 38],100 to 1000 nM,> 5000 nM
"COc1cc2c(cc1-c1c[nH]nc1C)-n1c(-c3ccsc3)nc(C(=O)N(C)C(C)(C)C)c1CC2 [Compound 76, 7-Methoxy-8-(3-methyl-1H-pyrazol-4-yl)-1-thiophen-3-yl-4,5-dihydro-imidazo+1,5-a+quinoline-3-carboxylic acid tert-butyl-methyl-amide]",< 100 nM,100 to 1000 nM
COc1cc2c(cc1OC(C)C)-n1c(-c3cccc(Cl)c3)nc(C(=O)N3CCOCC3(C)C)c1CC2 [Compound 44],100 to 1000 nM,> 5000 nM
COc1cc2c(cc1OC(C)C)-n1c(-c3cccs3)nc(C(=O)N3CCCN(C(=O)C4CCC4)CC3)c1CC2 [Compound 7],< 100 nM,100 to 1000 nM
COc1cc2c(cc1OC(C)C)-n1c(-c3ccc(F)c(F)c3)nc(C(=O)N3CCOCC3(C)C)c1CC2 [Compound 102],100 to 1000 nM,1000 to 5000 nM
"COc1cc2c(cc1CC(C)C)-n1c(-c3cccs3)nc(C(=O)N(C)CCN3CCOC3=O)c1CC2 [Compound 25, 8-Isobutyl-7-methoxy-1-thiophen-2-yl-4,5-dihydro-imidazo[1,5-a]quinoline-3-carboxylic acid methyl-[2-(2-oxo-oxazolidin-3-yl)-ethyl]-amide]",< 100 nM,100 to 1000 nM
COc1cc2c(cc1OC(C)C)-n1c(-c3ccc(Cl)s3)nc(C(=O)N3CCOCC3(C)C)c1CC2 [Compound 72],< 100 nM,< 100 nM
"COc1cc2c(cc1-c1cnn(C)c1)-n1c(-c3cccs3)nc(C(=O)N3CCOCC3(C)C)c1CC2 [Compound 75, (3,3-Dimethyl-morpholin-4-yl)-[7-methoxy-8-(1-methyl-1H-pyrazol-4-yl)-1-thiophen-2-yl-4,5-dihydro-imidazo[1,5-a]quinolin-3-yl]-methanone]",< 100 nM,100 to 1000 nM
"COc1cc2c(cc1CC(C)C)-n1c(-c3ccc(Cl)s3)nc(C(=O)N(C)C(C)(C)C)c1CC2 [Compound 97, 1-(5-Chloro-thiophen-2-yl)-8-isobutyl-7-methoxy-4,5-dihydro-imidazo[1,5-a]quinoline-3-carboxylic acid tert-butyl-methyl-amide]",< 100 nM,100 to 1000 nM
"COc1cc2c(cc1OC(C)C)-n1c(-c3cccs3)nc(C(=O)N(C)C(C)(C)C)c1CC2 [Compound 11, 8-Isopropoxy-7-methoxy-1-thiophen-2-yl-4,5-dihydro-imidazo[1,5-a]quinoline-3-carboxylic acid tert-butyl-methyl-amide]",100 to 1000 nM,> 5000 nM
"COCCCc1nc(C(=O)N2CCOCC2(C)C)c2n1-c1cc(OC(C)C)c(OC)cc1CC2 [Compound 82, (3,3-Dimethyl-morpholin-4-yl)-[8-isopropoxy-7-methoxy-1-(3-methoxy-propyl)-4,5-dihydro-imidazo[1,5-a]quinolin-3-yl]-methanone]",> 5000 nM,–
COc1cc2c(cc1OC(C)C)-n1c(-c3cccc(C(F)(F)F)c3)nc(C(=O)N(C)C(C)(C)C)c1CC2 [Compound 68],100 to 1000 nM,–
COc1cc2c(cc1OC(C)C)-n1c(-c3cccc4cn[nH]c34)nc(C(=O)N3CCOCC3(C)C)c1CC2 [Compound 89],1000 to 5000 nM,–
"COc1cc2c(cc1-c1n[nH]c(=S)o1)-n1c(-c3cccs3)nc(C(=O)N(C)C(C)(C)C)c1CC2 [Compound 133, 7-Methoxy-1-thiophen-2-yl-8-(5-thioxo-4,5-dihydro-[1,3,4]oxadiazol-2-yl)-4,5-dihydro-imidazo[1,5-a]quinoline-3-carboxylic acid tert-butyl-methyl-amide]",< 100 nM,–
